Structures can show the parent of a compound that is named as a salt. Where two headings read alike, the source gives them in different places.
Molecular target: T1, Human ATX protein (Homo sapiens, UniProt Q13822)
T1 construct: made in house
Assay: ATX biochemical assay (FRET, FS-3 substrate)
Conditions: FS-3 2 μM, ATX 1.0 μg/mL, 30 minutes preincubation, 2 hours reaction at room temperature
Text: ATX (Autotaxin) is a 125 KDa glycoprotein with lysophospholipase D (LPLD) activity that generates the bioactive lipid lysophosphatidic acid (LPA) from lysophosphatidylcholine (LPC). The ATX biochemical assay utilizes a FRET (fluorescence resonance energy transfer) technology platform. The fluorescence signal of FRET substrate FS-3 is quenched due to intra-molecular FRET of a fluorophore to a non-fluorescing quencher (Ferguson, C. G., et al., Org Lett. 2006 May 11; 8(10): 2023-2026, which is incorporated by reference in its entirety). ATX catalyzes the hydrolysis of the substrate which separates the dabsyl quencher from the fluorescein reporter, which becomes fluorescent. The reaction is monitored by a SpectraMax M5 (Molecular Devices, Sunnyvale, Calif.) with at excitation wavelength 485 nm and emission wavelength […].
Fatty acid free-BSA (Sigma A8806): 10 mg/mL in H2O, stored at 4° C.
2×ATX assay buffer: 100 mM Tris, 280 mM NaCl, 10 mM KCl, 2 mM CaCl2, 2 mM MgCl2, pH 7.4.
Human ATX protein: expressed and purified in house. Stored at −80° C.
Substrate FS-3 (Echelon, L-2000): 100 μg in 77.74 μL H2O (1 mM stock), stored at −20° C.
384-well flat bottom plates—Corning #3575.
Compound dilution—All compounds were provided at 10 mM in 100% DMSO. In the first well, 2 μL of 10 mM compound was added to 78 μL of DMSO (1:40 dilution). In subsequent wells 3-fold dilution (total 10 dilutions) were performed.
1×ATX assay buffer was made up with a final concentration of 1 mg/mL fatty acid free-BSA using 2×ATX assay buffer, 10 mg/ml fatty acid free-BSA and ddH2O.
[…]. The final concentration of ATX in the reaction as 1.0 μg/mL.
2 μL per well of compounds was transferred to provide the desired concentration. The plate was centrifuged, then incubated at room temperature for 30 minutes on the shaker.
FS-3 was diluted with 1×ATX assay buffer to a concentration of FS-3 of 10 μM (5×). Then, 10 μL was added per well to the assay plate. The final concentration of FS-3 in the reaction was 2 μM. The plate was centrifuged. The plate was kept shaking at room temperature for 2 hours. Because FS-3 substrate is light sensitive, plates were kept covered and protected from light.
Fluorescence was measured using SpectraMax M5 (excitation at 485 nm/emission at 538 nm, top read).

| IC50 (FRET assay, read-out: IC50) | Structure (SMILES) | IC50 (IC50, FRET assay) |
| --- | --- | --- |
| ≤ 100 nM | CCOC(=O)C1CCCN(CC(=O)N2CCc3c(C(F)(F)F)nn(Cc4ccc(F)cc4)c3C2)C1 (stereo not drawn) [Example 12-5, Ethyl 1-(2-(1-(4-fluorobenzyl)-3-(trifluoromethyl)-4,5-dihydro-1H-pyrazolo[3,4-c]pyridin-6(7H)-yl)-2-oxoethyl)piperidine-3-carboxylate] | – |
| ≤ 100 nM | N[C@H]1CC[C@@H](CC(=O)N2CCc3c(C(F)(F)F)nn(Cc4ccc(F)cc4)c3C2)CC1 [Example 9-18, 2-(cis-4-Aminocyclohexyl)-1-(1-(4-fluorobenzyl)-3-(trifluoromethyl)-4,5-dihydro-1H-pyrazolo[3,4-c]pyridin-6(7H)-yl)ethanone TFA salt] | – |
| ≤ 100 nM | CCOC(=O)[C@H]1CC[C@H](CC(=O)N2CCc3c(C(F)(F)F)nn(Cc4ccc(OC)cc4)c3C2)CC1 [Example 1-26, trans-Ethyl 4-(2-(1-(4-methoxylbenzyl)-3-(trifluoromethyl)-4,5-dihydro-1H-pyrazolo[3,4-c]pyridin-6(7H)-yl)-2-oxoethyl)cyclohexanecarboxylate] | – |
| ≤ 100 nM | O=C(CC1CC(N2CCCC2)C1)N1CCc2c(C(F)(F)F)nn(Cc3ccc(F)cc3)c2C1 (stereo not drawn) [Example 22-3, 1-(1-(4-Fluorobenzyl)-3-(trifluoromethyl)-4,5-dihydro-1H-pyrazolo[3,4-c]pyridin-6(7H)-yl)-2-(3-(pyrrolidin-1-yl)cyclobutyl)ethanone TFA salt] | – |
| ≤ 100 nM | O=C(O)C12CCC(C(=O)N3CCc4c(C(F)(F)F)nn(Cc5ccc(F)cc5)c4C3)(CC1)C2 [Example 5-50, 4-(1-(4-Fluorobenzyl)-3-(trifluoromethyl)-4,5,6,7-tetrahydro-1H-pyrazolo[3,4-c]pyridine-6-carbonyl)bicyclo[2.2.1]heptane-1-carboxylic acid] | – |
| ≤ 100 nM | CC(=O)N1CCCC(CC(=O)N2CCc3c(C(F)(F)F)nn(Cc4ccc(F)cc4)c3C2)C1 (stereo not drawn) [Example 17-1] | – |
| 250 to 500 nM | CN(C)C12CCC(C(=O)N3CCc4c(C(F)(F)F)nn(Cc5ccc(F)cc5)c4C3)(CC1)CC2 [Example 10-9, (4-(dimethylamino)bicyclo[2.2.2]octan-1-yl)(1-(4-fluorobenzyl)-3-(trifluoromethyl)-4,5-dihydro-1H-pyrazolo[3,4-c]pyridin-6(7H)-yl)methanone trifluoroacetate salt TFA salt] | – |
| ≤ 100 nM | O=C(C[C@H]1CC[C@H](C(=O)O)CC1)N1CCc2c(C3CC3)nn(Cc3ccc(F)cc3)c2C1 [Example 5-38, trans-4-(2-(3-Cyclopropyl-1-(4-fluorobenzyl)-4,5-dihydro-1H-pyrazolo[3,4-c]pyridin-6(7H)-yl)-2-oxoethyl)cyclohexanecarboxylic acid] | – |
| ≤ 100 nM | C[C@]1(C(=O)O)CC[C@@H](CC(=O)N2CCc3c(C(F)(F)F)nn(Cc4ccc(F)cc4)c3C2)CC1 [Example 7-25, cis-4-(2-(1-(4-fluorobenzyl)-3-(trifluoromethyl)-4,5-dihydro-1H-pyrazolo[3,4-c]pyridin-6(7H)-yl)-2-oxoethyl)-1-methylcyclohexanecarboxylic acid] | – |
| ≤ 100 nM | O=C(CC12CCC(C(=O)O)(CC1)CC2)N1CCc2c(C(F)(F)F)nn(Cc3ccc(F)cc3)c2C1 [Example 5-13, 4-(2-(1-(4-Fluorobenzyl)-3-(trifluoromethyl)-4,5-dihydro-1H-pyrazolo[3,4-c]pyridin-6(7H)-yl)-2-oxoethyl)bicyclo[2.2.2]octane-1-carboxylic acid] | – |
| ≤ 100 nM | N#C[C@H]1CC[C@@H](CC(=O)N2CCc3c(C(F)(F)F)nn(Cc4ccc(F)cc4)c3C2)CC1 [Example 21-1, cis-4-(2-(1-(4-Fluorobenzyl)-3-(trifluoromethyl)-4,5-dihydro-1H-pyrazolo[3,4-c]pyridin-6(7H)-yl)-2-oxoethyl)cyclohexanecarbonitrile] | – |

More lines, now with the values behind:

| Structure (SMILES) | IC50 (FRET assay, read-out: IC50) | IC50 (IC50, FRET assay) |
| --- | --- | --- |
| O=C(N[C@H]1CC[C@@H](C(=O)O)CC1)N1CCc2c(C(F)(F)F)nn(Cc3ccc(Cl)cc3F)c2C1 [Example 5-6, cis-4-(1-(4-chloro-2-fluorobenzyl)-3-(trifluoromethyl)-4,5,6,7-tetrahydro-1H-pyrazolo[3,4-c]pyridine-6-carboxamido)cyclohexanecarboxylic acid] | ≤ 100 nM | – |
| O=C(C[C@H]1CC[C@H](C(=O)O)CC1)N1CCc2c(C(F)(F)F)nn(Cc3cc(F)c(F)cc3F)c2C1 [Example 5-32, trans-4-(2-(1-(2,4,5-Trifluorobenzyl)-3-(trifluoromethyl)-4,5-dihydro-1H-pyrazolo[3,4-c]pyridin-6(7H)-yl)-2-oxoethyl)cyclohexanecarboxylic acid] | ≤ 100 nM | – |
| O=C(CCc1nc2ccccc2s1)N1CCc2c(C(F)(F)F)nn(Cc3ccc(F)cc3)c2C1 [Example 1-14, 3-(Benzo[d]thiazol-2-yl)-1-(1-(4-fluorobenzyl)-3-(trifluoromethyl)-4,5-dihydro-1H-pyrazolo[3,4-c]pyridin-6(7H)-yl)propan-1-one] | ≤ 100 nM | – |
| O=C(CC1CN2CCC1CC2)N1CCc2c(C(F)(F)F)nn(Cc3ccc(F)cc3)c2C1 (stereo not drawn) [Example 1-37, 1-(1-(4-Fluorobenzyl)-3-(trifluoromethyl)-4,5-dihydro-1H-pyrazolo[3,4-c]pyridin-6(7H)-yl)-2-(quinuclidin-3-yl)ethanone TFA salt] | – | ≤ 100 nM |
| O=C(O)C12CCC(C(=O)N3CCc4c(C(F)(F)F)nn(Cc5ccc(F)cc5)c4C3)(CC1)CC2 [Example 5-11, 4-(1-(4-Fluorobenzyl)-3-(trifluoromethyl)-4,5,6,7-tetrahydro-1H-pyrazolo[3,4-c]pyridine-6-carbonyl)bicyclo[2.2.2]octane-1-carboxylic acid] | ≤ 100 nM | – |
| CC(C(=O)N1CCc2c(C(F)(F)F)nn(Cc3ccc(Cl)cc3F)c2C1)C1CCC(C(=O)O)CC1 (stereo not drawn) [Example 6-4, 4-(1-(1-(4-Chloro-2-fluorobenzyl)-3-(trifluoromethyl)-4,5-dihydro-1H-pyrazolo[3,4-c]pyridin-6(7H)-yl)-1-oxopropan-2-yl)cyclohexanecarboxylic acid] | ≤ 100 nM | – |
| CN1CC(CC(=O)N2CCc3c(C(F)(F)F)nn(Cc4ccc(Cl)cc4F)c3C2)C[C@H]1C(=O)O (stereo partly drawn) [Example 10-11, (2S)-4-(2-(1-(4-Chloro-2-fluorobenzyl)-3-(trifluoromethyl)-4,5-dihydro-1H-pyrazolo[3,4-c]pyridin-6(7H)-yl)-2-oxoethyl)-1-methylpyrrolidine-2-carboxylic acid TFA salt] | ≤ 100 nM | – |
| O=C(CC1CC2CCC(C1)N2)N1CCc2c(C(F)(F)F)nn(Cc3ccc(Cl)cc3F)c2C1 (stereo not drawn) [Example 9-1, 2-(8-Aza-bicyclo[3.2.1]octan-3-yl)-1-(1-(4-chloro-2-fluorobenzyl)-3-(trifluoromethyl)-4,5-dihydro-1H-pyrazolo[3,4-c]pyridin-6(7H)-yl)ethanone TFA salt] | – | ≤ 100 nM |
| CC(C)N1CC(CC(=O)N2CCc3c(C(F)(F)F)nn(Cc4ccc(Cl)cc4F)c3C2)C[C@H]1C(=O)O (stereo partly drawn) [Example 10-12, (2S)-4-(2-(1-(4-Chloro-2-fluorobenzyl)-3-(trifluoromethyl)-4,5-dihydro-1H-pyrazolo[3,4-c]pyridin-6(7H)-yl)-2-oxoethyl)-1-isopropylpyrrolidine-2-carboxylic acid TFA salt] | ≤ 100 nM | – |
| O=C(O)C1CC2CCC(C1)C2CC(=O)N1CCc2c(C(F)(F)F)nn(Cc3ccc(Cl)cc3F)c2C1 (mixture of isomers) [Example 6-10, 8-(2-(1-(4-Chloro-2-fluorobenzyl)-3-(trifluoromethyl)-4,5-dihydro-1H-pyrazolo[3,4-c]pyridin-6(7H)-yl)-2-oxoethyl)bicyclo[3.2.1]octane-3-carboxylic acid] | ≤ 100 nM | – |
